Consider 2 compounds from patent US8916550B2, “Compounds for modulating TRPV3 function” (Hydra Biosciences, Inc., priority 2005, dated 2014).

Series [1] relates to Male Holtzman rats, thermal injury. The series is described as follows: Thermal injury model, thermal escape latency (Hargreaves). Format: in vivo, rat. Here is the method: The thermal injury model was used to evaluate the effectiveness of an exemplary TRPV3 inhibitor in the treatment of nociceptive pain. FIG. 1 provides a schematic representation of the protocol used to evaluate a TRPV3 inhibitor in the thermal injury model.
(§1) Briefly, the following protocol was followed. Male Holtzman rats (approximately 300 grams) were tested on thermal escape using a Hargreaves type apparatus. Under light anesthesia, a thermal injury (52° C. for 45 seconds) was applied to one heel. The animals were tested for thermal escape latency of the injured and uninjured paw before and at 30, 60, 80 and 120 minutes after injury. Drug (a TRPV3 inhibitor or morphine) or vehicle (0.5% methylcellulose) was administered after the baseline measurement and approximately 15-20 minutes prior to the thermal injury. In addition to the escape latency measurement, behavioral observations were made throughout the experiment.

The test system is the same in series [2]. The settings on record: Table B comparators; based on our data as well as data available in the literature; cited from earlier work.
In series [3] the test system is Male Holtzman rats. The series can be described thus: Behavioral deficits / side effects observed in thermal injury experiment (animals affected of n). The class given is in vivo, rat. The settings on record: for Blistered paw / Catalepsy / Corneal response / Exopthalmos / Pinna response / Spontaneous agitation / Tactile allodynia: 10 mg/kg. Here is the method:
as §1
Table A provides a comparison of the side-effects observed in rats following administration of TRPV3 inhibitor 64, at varying concentrations, versus the side-effects observed in rats administered 10 mg/kg of morphine. Side-effects of rats administered 0.5% methycellulouse were observed and served as a control.

Series [4] relates to rats, CFA injected hindpaw. Particulars: Table B comparators; based on our data as well as data available in the literature; cited from earlier work.
Series [5] deals with Male Holtzman rats. The settings on record: Table B comparators; based on our data as well as data available in the literature; cited from earlier work.
The test system of series [6] is rats, carrageenan-injected hindpaw. The settings on record: Table B comparators; based on our data as well as data available in the literature; cited from earlier work.
The test system of series [7] is Male Holtzmann rats, intraplantar formalin. The settings on record: Table B comparators; based on our data as well as data available in the literature; cited from earlier work.

As to `CN1CC[C@]23c4c5ccc(O)c4O[C@H]2[C@@H](O)C=C[C@H]3[C@H]1C5` [Morphine, morphine], in series [1] (morphine (FIG. 4)), the “Effect on escape latency of injured and un-injured paw” value was “does have an effect on both the injured and un-injured paw”. Besides, in series [1] (morphine, FIG. 4 legend), the “Thermal escape latency after treatment” value is given as “elevated above the baseline”. For the same compound, in series [2], the Acute thermal injury entry is reported as “Effective”. Besides, in the series with Male Holtzman rats [3] (Pre Injury Observation), the Blistered paw was 0 of 7, the Catalepsy is given as 0 of 7, the Corneal response is given as 0 of 7 and the Exopthalmos was 0 of 7. In the series on Male Holtzman rats [3] (Pre Injury Observation), the Pinna response is 0 of 7, the Spontaneous agitation is recorded as 0 of 7 and the Tactile allodynia is reported as 0 of 7. In the series with Male Holtzman rats [3] (t = 30 min), the Blistered paw is listed as 0 of 7, the Catalepsy is on record as 4 of 7, the Corneal response is on record as 0 of 7 and the Exopthalmos is on record as 6 of 7. Besides, in the series with Male Holtzman rats [3] (t = 30 min), the Pinna response is recorded as 5 of 7, the Spontaneous agitation is reported as 0 of 7 and the Tactile allodynia was 0 of 7. Moreover, in the series with Male Holtzman rats [3] (t = 60 min), the Blistered paw was 0 of 7, the Catalepsy is on record as 3 of 7, the Corneal response is 0 of 7 and the Exopthalmos was 6 of 7. For the same compound, in the series with Male Holtzman rats [3] (t = 60 min), the Pinna response is listed as 2 of 7, the Spontaneous agitation is listed as 0 of 7 and the Tactile allodynia was 0 of 7. Also, in the series on Male Holtzman rats [3] (t = 90 min), the Blistered paw is on record as 0 of 7, the Catalepsy is recorded as 1 of 7, the Corneal response was 0 of 7 and the Exopthalmos is given as 6 of 7. For the same compound, in the series with Male Holtzman rats [3] (t = 90 min), the Pinna response is on record as 0 of 7, the Spontaneous agitation is on record as 0 of 7 and the Tactile allodynia is reported as 0 of 7. Also, in the series on Male Holtzman rats [3] (t = 120 min), the Blistered paw is on record as 0 of 7, the Catalepsy is recorded as 0 of 7, the Corneal response is listed as 0 of 7 and the Exopthalmos is listed as 0 of 7. Moreover, in the series on Male Holtzman rats [3] (t = 120 min), the Pinna response is 0 of 7, the Spontaneous agitation is 0 of 7 and the Tactile allodynia is 0 of 7. Further, in the series with Male Holtzman rats [3] (morphine 10 mg/kg), the Side-effects of administration result is “exopthalmos (bulging eyes), catalepsy (a near catatonic state), and the pinna response”. The “CFA Model” value in series [4] is on record as “Effective”. In the series with Male Holtzman rats [5], the Non-narcotic result was “Narcotic”. For the same compound, the “Carrageenan Model” value in series [6] is listed as “Effective”.

Turning to `O=C(NCc1ccc(C(F)(F)F)cc1)Nc1cccc2cnccc12` [TRPV1 Antagonist], the Acute thermal injury entry in series [2] was “Effective”. Also, the “CFA Model” value in series [4] is “Effective”. For the same compound, in series [7], the “Formalin Model” value is listed as “Ineffective”. In series [6], the “Carrageenan Model” value is recorded as “Effective”.
